Experiments:
Test in all cases: Test E pre-/postemergence plant response
Assay type in all cases: in vivo
[1] = test system: naked crabgrass (Digitaria nuda); conditions: scale 0 to 100
Source text: (§1) Seeds of plant species selected from bermudagrass (Cynodon dactylon), Surinam grass (Brachiaria decumbens), large crabgrass (Digitaria sanguinalis), green foxtail (Setaria viridis), goosegrass (Eleusine indica), johnsongrass (Sorghum halepense), kochia (Kochia scoparia), pitted morningglory (Ipomoea lacunosa), purple nutsedge (Cyperus rotundus), common ragweed (Ambrosia elation), black mustard (Brassica nigra), guineagrass (Panicum maximum), dallisgrass (Paspalum dilatatum), barnyardgrass (Echinochloa crus-galli), southern (S.) sandbur (Cenchrus echinatus), common sowthistle (Sonchus oleraceous), prickly sida (Sida spinosa), Italian ryegrass (Lolium multiflorum), common purslane (Portulaca oleracea), broadleaf signalgrass (Brachiaria platyphylla), common groundsel (Senecio vulgaris), common chickweed (Stellaria media), Virginia (V.) dayflower (Commelina virginica), tropical (T.) spiderwort (Commelina benghalensis), annual bluegrass (Poa annua), naked crabgrass (Digitaria nuda), itchgrass (Rottboellia cochinchinensis), quackgrass (Elytrigia repens), Canada horseweed (Conyza canadensis), field bindweed (Convolvulus arvensis), spanishneedles (Bidens bipinnata), common mallow (Malva sylvestris) and Russian thistle (Salsola kali) were planted and treated preemergence with test chemicals formulated in a non-phytotoxic solvent mixture which included a surfactant. At the same time, plants selected from these weed species were treated with postemergence applications of some of the test chemicals formulated in the same manner. Plants ranged in height from 2 to 18 cm (1- to 4-leaf stage) for postemergence treatments.
(§2) Treated plants and controls were maintained in a greenhouse for 14 to 21 days, after which time all species were compared to controls and visually evaluated. Plant response ratings, summarized in Table E, are based on a scale of 0 to 100 where 0 is no effect and 100 is complete control. A dash (-) response means no test result.

[2] = test system: surinam grass (Brachiaria decumbens); conditions: scale 0 to 100
Source text: as §1, §2

[3] = test system: broadleaf signalgrass (Brachiaria platyphylla); conditions: scale 0 to 100
Source text: as §1, §2

[4] = test system: itchgrass (Rottboellia cochinchinensis); conditions: scale 0 to 100
Source text: as §1, §2

[5] = test system: Italian ryegrass (Lolium multiflorum); conditions: scale 0 to 100
Source text: as §1, §2

[6] = test system: johnsongrass (Sorghum halepense); conditions: scale 0 to 100
Source text: as §1, §2

[7] = test system: goosegrass (Eleusine indica); conditions: scale 0 to 100
Source text: as §1, §2

[8] = test system: common chickweed (Stellaria media); conditions: Postemergence, scale 0 to 100
Source text: as §1, §2

[9] = test system: barnyardgrass (Echinochloa crus-galli); conditions: scale 0 to 100
Source text: as §1, §2

[10] = test system: quackgrass (Elytrigia repens); conditions: scale 0 to 100
Source text: as §1, §2

[11] = test system: southern (S.) sandbur (Cenchrus echinatus); conditions: scale 0 to 100
Source text: as §1, §2

[12] = test system: green foxtail (Setaria viridis); conditions: scale 0 to 100
Source text: as §1, §2

[13] = test system: black mustard (Brassica nigra); conditions: scale 0 to 100
Source text: as §1, §2

[14] = test system: pitted morningglory (Ipomoea lacunosa); conditions: scale 0 to 100
Source text: as §1, §2

Cc1cc(-c2ccc(Cl)cc2)nn1-c1c(OS(C)(=O)=O)cnn(C)c1=O [Compound 36]
Plant response rating, Crabgrass, Naked ([1]; 8 g ai/ha, Preemergence): 90
Plant response rating, Crabgrass, Naked ([1]; 16 g ai/ha, Preemergence): 100
Plant response rating, Crabgrass, Naked ([1]; 31 g ai/ha, Preemergence): 100
Plant response rating, Crabgrass, Naked ([1]; 62 g ai/ha, Preemergence): 100
Plant response rating, Crabgrass, Naked ([1]; Postemergence, 8 g ai/ha): 40
Plant response rating, Crabgrass, Naked ([1]; Postemergence, 16 g ai/ha): 60
Plant response rating, Crabgrass, Naked ([1]; Postemergence, 31 g ai/ha): 90
Plant response rating, Crabgrass, Naked ([1]; Postemergence, 62 g ai/ha): 98
Plant response rating, Surinam Grass ([2]; 16 g ai/ha, Preemergence): 95
Plant response rating, Surinam Grass ([2]; 31 g ai/ha, Preemergence): 100
Plant response rating, Surinam Grass ([2]; 62 g ai/ha, Preemergence): 100
Plant response rating, Surinam Grass ([2]; Postemergence, 8 g ai/ha): 65
Plant response rating, Surinam Grass ([2]; Postemergence, 16 g ai/ha): 65
Plant response rating, Surinam Grass ([2]; Postemergence, 31 g ai/ha): 80
Plant response rating, Surinam Grass ([2]; Postemergence, 62 g ai/ha): 100
Plant response rating, Signalgrass ([3]; 16 g ai/ha, Preemergence): 70
Plant response rating, Signalgrass ([3]; 31 g ai/ha, Preemergence): 100
Plant response rating, Signalgrass ([3]; 62 g ai/ha, Preemergence): 100
Plant response rating, Signalgrass ([3]; Postemergence, 8 g ai/ha): 10
Plant response rating, Signalgrass ([3]; Postemergence, 16 g ai/ha): 50
Plant response rating, Signalgrass ([3]; Postemergence, 31 g ai/ha): 90
Plant response rating, Signalgrass ([3]; Postemergence, 62 g ai/ha): 100
Plant response rating, Itchgrass ([4]; 16 g ai/ha, Preemergence): 65
Plant response rating, Itchgrass ([4]; 31 g ai/ha, Preemergence): 75
Plant response rating, Itchgrass ([4]; 62 g ai/ha, Preemergence): 90
Plant response rating, Itchgrass ([4]; Postemergence, 8 g ai/ha): 0
Plant response rating, Itchgrass ([4]; Postemergence, 16 g ai/ha): 40
Plant response rating, Itchgrass ([4]; Postemergence, 31 g ai/ha): 50
Plant response rating, Itchgrass ([4]; Postemergence, 62 g ai/ha): 60
Plant response rating, Ryegrass, Italian ([5]; 16 g ai/ha, Preemergence): 100
Plant response rating, Ryegrass, Italian ([5]; 31 g ai/ha, Preemergence): 100
Plant response rating, Ryegrass, Italian ([5]; 62 g ai/ha, Preemergence): 100
Plant response rating, Ryegrass, Italian ([5]; Postemergence, 8 g ai/ha): 0
Plant response rating, Ryegrass, Italian ([5]; Postemergence, 16 g ai/ha): 35
Plant response rating, Ryegrass, Italian ([5]; Postemergence, 31 g ai/ha): 60
Plant response rating, Ryegrass, Italian ([5]; Postemergence, 62 g ai/ha): 80
Plant response rating, Johnsongrass ([6]; 16 g ai/ha, Preemergence): 75
Plant response rating, Johnsongrass ([6]; 31 g ai/ha, Preemergence): 85
Plant response rating, Johnsongrass ([6]; 62 g ai/ha, Preemergence): 95
Plant response rating, Johnsongrass ([6]; Postemergence, 8 g ai/ha): 35
Plant response rating, Johnsongrass ([6]; Postemergence, 16 g ai/ha): 50
Plant response rating, Johnsongrass ([6]; Postemergence, 31 g ai/ha): 75
Plant response rating, Johnsongrass ([6]; Postemergence, 62 g ai/ha): 95
Plant response rating, Goosegrass ([7]; 8 g ai/ha, Preemergence): 30
Plant response rating, Goosegrass ([7]; 16 g ai/ha, Preemergence): 98
Plant response rating, Goosegrass ([7]; 31 g ai/ha, Preemergence): 98
Plant response rating, Goosegrass ([7]; 62 g ai/ha, Preemergence): 100
Plant response rating, Goosegrass ([7]; Postemergence, 8 g ai/ha): 0
Plant response rating, Goosegrass ([7]; Postemergence, 16 g ai/ha): 35
Plant response rating, Goosegrass ([7]; Postemergence, 31 g ai/ha): 40
Plant response rating, Goosegrass ([7]; Postemergence, 62 g ai/ha): 75
Plant response rating, Chickweed ([8]; 8 g ai/ha): 0
Plant response rating, Chickweed ([8]; 16 g ai/ha): 0
Plant response rating, Barnyardgrass ([9]; 8 g ai/ha, Preemergence): 80
Plant response rating, Barnyardgrass ([9]; 16 g ai/ha, Preemergence): 95
Plant response rating, Barnyardgrass ([9]; 31 g ai/ha, Preemergence): 95
Plant response rating, Barnyardgrass ([9]; 62 g ai/ha, Preemergence): 100
Plant response rating, Barnyardgrass ([9]; Postemergence, 8 g ai/ha): 50
Plant response rating, Barnyardgrass ([9]; Postemergence, 16 g ai/ha): 50
Plant response rating, Barnyardgrass ([9]; Postemergence, 31 g ai/ha): 95
Plant response rating, Barnyardgrass ([9]; Postemergence, 62 g ai/ha): 100
Plant response rating, Quackgrass ([10]; 16 g ai/ha, Preemergence): 20
Plant response rating, Quackgrass ([10]; 31 g ai/ha, Preemergence): 50
Plant response rating, Quackgrass ([10]; 62 g ai/ha, Preemergence): 70
Plant response rating, Quackgrass ([10]; Postemergence, 8 g ai/ha): 0
Plant response rating, Quackgrass ([10]; Postemergence, 16 g ai/ha): 0
Plant response rating, Quackgrass ([10]; Postemergence, 31 g ai/ha): 30
Plant response rating, Quackgrass ([10]; Postemergence, 62 g ai/ha): 35
Plant response rating, Sandbur, S. ([11]; 16 g ai/ha, Preemergence): 90
Plant response rating, Sandbur, S. ([11]; 31 g ai/ha, Preemergence): 100
Plant response rating, Sandbur, S. ([11]; 62 g ai/ha, Preemergence): 100
Plant response rating, Sandbur, S. ([11]; Postemergence, 8 g ai/ha): 40
Plant response rating, Sandbur, S. ([11]; Postemergence, 16 g ai/ha): 65
Plant response rating, Sandbur, S. ([11]; Postemergence, 31 g ai/ha): 80
Plant response rating, Sandbur, S. ([11]; Postemergence, 62 g ai/ha): 85
Plant response rating, Foxtail, Green ([12]; 8 g ai/ha, Preemergence): 15
Plant response rating, Foxtail, Green ([12]; 16 g ai/ha, Preemergence): 60
Plant response rating, Foxtail, Green ([12]; 31 g ai/ha, Preemergence): 95
Plant response rating, Foxtail, Green ([12]; 62 g ai/ha, Preemergence): 100
Plant response rating, Foxtail, Green ([12]; Postemergence, 8 g ai/ha): 35
Plant response rating, Foxtail, Green ([12]; Postemergence, 16 g ai/ha): 50
Plant response rating, Foxtail, Green ([12]; Postemergence, 31 g ai/ha): 75
Plant response rating, Foxtail, Green ([12]; Postemergence, 62 g ai/ha): 75
Plant response rating, Mustard, Black ([13]; 8 g ai/ha, Preemergence): 0
Plant response rating, Mustard, Black ([13]; 16 g ai/ha, Preemergence): 0
Plant response rating, Mustard, Black ([13]; 31 g ai/ha, Preemergence): 0
Plant response rating, Mustard, Black ([13]; 62 g ai/ha, Preemergence): 0
Plant response rating, Mustard, Black ([13]; Postemergence, 8 g ai/ha): 0
Plant response rating, Mustard, Black ([13]; Postemergence, 16 g ai/ha): 0
Plant response rating, Mustard, Black ([13]; Postemergence, 31 g ai/ha): 0
Plant response rating, Mustard, Black ([13]; Postemergence, 62 g ai/ha): 0
Plant response rating, Morningglory ([14]; 16 g ai/ha, Preemergence): 0
Plant response rating, Morningglory ([14]; 31 g ai/ha, Preemergence): 0
Plant response rating, Morningglory ([14]; 62 g ai/ha, Preemergence): 0
Plant response rating, Morningglory ([14]; Postemergence, 8 g ai/ha): 0
Plant response rating, Morningglory ([14]; Postemergence, 16 g ai/ha): 0
Plant response rating, Morningglory ([14]; Postemergence, 31 g ai/ha): 0
Plant response rating, Morningglory ([14]; Postemergence, 62 g ai/ha): 0
